Legend:
[1] = tested on: HDAC (Mouse Liver Extract); assay: HDAC inhibition assay using Boc-Lys(Ac)-AMC substrate; type: biochemical; conditions: mouse liver enzyme
How it was run: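 Boc-Lys(Ac)-AMC substrate incubated with mouse liver extract as HDAC source, 5 min preincubation then 30 min at 37° C. Trypsin stop solution added (37° C., 15-30 min) to release AMC, read at ex 360/em 460 nm; buffer-only and substrate-only wells as blanks.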

HCT 116 (colon) cells = assay: Anti-cancer screen (MTT), HCT 116; type: cell-based; conditions: Homo sapiens, HCT-116, HCT116, 48 hours, MTT; for GI50: read-out: Cell growth inhibition HCT116 (Colon) GI50; for CC50: read-out: Cell growth inhibition HCT116 (Colon) LC50; for IC (TGI): read-out: Cell growth inhibition HCT116 (Colon) TGI
How it was run: (§1)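 Growth inhibition is measured by MTT reduction: after 48 h drug exposure at 0.01 to 100 μM, cells receive MTT for 3 h and dissolved formazan is read at 570 nm, with a time-zero plate read when compounds are added.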

p21 = p21 induction, sandwich ELISA in HCT116 lysate; type: cell-based; conditions: HCT116, 18 hours
Description: (§2) Acetylated histone (H3), acetylated Tubulin and p21 levels were detected in cell lysate by sandwich ELISA method (Cell Signaling Technology, USA, Cat No: 7232, 7204 & 7167 respectively) by following manufacturer's instructions. Briefly, colon cancer cells (HCT116. 10,000/well) were incubated with test compound (1 and 10 μM) or medium (control) for 4 hours at 37° C. in CO2 incubator. The incubation lasted 18 hours for p21 induction. After incubation, cell lysates were prepared in cell lysis buffer by sonication on ice. The lysates were collected after centrifugation and subjected to ELISA test procedure. 100 μL of each diluted cell lysate in dilution buffer (1:1) was added to appropriate capture antibody coated microwells and incubated overnight at 4° C. After washing, 100 μL of detection antibody was added for 1 hour at 37° C. After second washing, 100 μL of HRP-linked secondary antibody was added for 30 min at 37° C. Finally, after appropriate washing, 100 μL of TMB substrate was added for 10 min at 37° C. followed by 100 μL of stop solution. The absorbance of individual wells was read using a spectrophotometer at 450 nm (A450).

U251 (glioma) cells = assay: Anti-cancer screen (MTT), U251; type: cell-based; conditions: Homo sapiens, U-251, U251, 48 hours, MTT; for GI50: read-out: Cell growth inhibition U251 (Glioma) GI50; for LC50 (concentration giving 50% net cell kill relative to the time-zero cell count): read-out: Cell growth inhibition U251 (Glioma) LC50; for IC (TGI): read-out: Cell growth inhibition U251 (Glioma) TGI
How it was run: as §1

Acetylated histone (H3) = assay: Histone (H3) acetylation, sandwich ELISA in HCT116 lysate; type: cell-based; conditions: HCT116, 4 hours
Description: as §2

[2] = tested on: NCIH460, HCT116 and U251 cells; assay: Anti-cancer screen, mean GI50 over cell lines; type: cell-based; conditions: mean over cell lines; read-out: Cell growth inhibition Mean GI50
How it was run: as §1

NCIH460 (lung) cells = assay: Anti-cancer screen (MTT), NCIH460; type: cell-based; conditions: Homo sapiens, NCI-H460, NCIH460, 48 hours, MTT; for GI50: read-out: Cell growth inhibition NCIH460 (Lung) GI50; for LC50: read-out: Cell growth inhibition NCIH460 (Lung) LC50; for IC (TGI): read-out: Cell growth inhibition NCIH460 (Lung) TGI
How it was run: as §1

acetylated Tubulin = assay: Tubulin acetylation, sandwich ELISA in HCT116 lysate; type: cell-based; conditions: HCT116, 4 hours
Description: as §2

recombinant HDAC1 enzyme = recombinant HDAC1 enzyme (Homo sapiens (Human), UniProt Q13547); assay: HDAC1 inhibitory activity (isoform selectivity); type: biochemical; conditions: read-out: HDAC1 inhibition (IC50)
Sequence of recombinant HDAC1 enzyme (Q13547 whole entry, canonical isoform): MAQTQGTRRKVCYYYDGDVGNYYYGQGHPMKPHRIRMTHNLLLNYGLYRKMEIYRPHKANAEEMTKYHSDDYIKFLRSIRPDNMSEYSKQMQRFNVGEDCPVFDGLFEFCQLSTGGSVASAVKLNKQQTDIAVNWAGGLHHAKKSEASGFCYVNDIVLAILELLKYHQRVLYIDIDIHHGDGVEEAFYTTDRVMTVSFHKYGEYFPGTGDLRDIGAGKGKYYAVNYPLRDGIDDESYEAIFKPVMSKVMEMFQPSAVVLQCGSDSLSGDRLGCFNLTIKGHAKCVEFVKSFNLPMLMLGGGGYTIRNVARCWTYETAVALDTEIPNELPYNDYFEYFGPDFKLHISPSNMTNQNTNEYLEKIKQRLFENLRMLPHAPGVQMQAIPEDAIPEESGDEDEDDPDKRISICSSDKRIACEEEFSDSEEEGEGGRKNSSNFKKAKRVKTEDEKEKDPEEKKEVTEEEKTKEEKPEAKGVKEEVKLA
Description: The assay was carried out, as previously described using recombinant HDAC1 enzyme (BIOMOL, USA) and following manufacturer's instructions.

| Compound | HDAC inhibition % (1 μM) [1] | HDAC inhibition % (10 μM) [1] | IC50 [1] | GI50 (HCT 116 (colon) cells) | CC50 (HCT 116 (colon) cells) | IC (TGI) (HCT 116 (colon) cells) | P21 induction (Fold increase) (p21; 1 μM) | P21 induction (Fold increase) (p21; 10 μM) | GI50 (U251 (glioma) cells) | LC50 (concentration giving 50% net cell kill relative to the time-zero cell count) (U251 (glioma) cells) | IC (TGI) (U251 (glioma) cells) | H3 acetylation (Fold increase) (Acetylated histone (H3); 1 μM) | H3 acetylation (Fold increase) (Acetylated histone (H3); 10 μM) | GI50 [2] | GI50 (NCIH460 (lung) cells) | LC50 (NCIH460 (lung) cells) | IC (TGI) (NCIH460 (lung) cells) | Tubulin acetylation (Fold increase) (acetylated Tubulin; 1 μM) | Tubulin acetylation (Fold increase) (acetylated Tubulin; 10 μM) | IC50 (recombinant HDAC1 enzyme) |
| --- | --- | --- | --- | --- | --- | --- | --- | --- | --- | --- | --- | --- | --- | --- | --- | --- | --- | --- | --- | --- |
| COc1ccc(/C=C(/C(=O)NCc2ccc(C(=O)Nc3ccccc3N)cc2)c2ccccc2)cc1OC [Compound 31, N-(2-Aminophenyl)-4-((3-(3,4-dimethoxyphenyl)-2-phenylacrylamido)methyl)benzamide] | 36.5% | 65.5% | 7.9 µM | 0.02 µM | > 100 µM | 40 µM | 1.2 Fold increase | 2.8 Fold increase | 3.8 µM | > 100 µM | 50 µM | 0.9 Fold increase | 1.7 Fold increase | 1.6 µM | 1.1 µM | > 100 µM | > 100 µM | 1.2 Fold increase | 2.1 Fold increase | 0.054 µM |
| COc1ccc(/C=C(/C(=O)NCc2ccc(C(=O)Nc3ccccc3N)cc2)c2ccccc2F)cc1OC [Compound 28, N-(2-Aminophenyl)-4-((3-(3,4-dimethoxyphenyl)-2-(2-fluorophenyl)acrylamido)methyl)benzamide] | 41.3% | 65.6% | 9.5 µM | 0.1 µM | > 100 µM | > 100 µM | 1.5 Fold increase | 2.5 Fold increase | 5.5 µM | > 100 µM | > 100 µM | 1.1 Fold increase | 5.6 Fold increase | 2.2 µM | 1 µM | > 100 µM | > 100 µM | 1.9 Fold increase | 6.2 Fold increase | 0.036 µM |

Reference: patent publication US8476255B2, “Histone deacetylase inhibitors” (Orchid Chemicals & Pharmaceuticals Limited, priority 2007, dated 2013)
